Data published in patent US5718923A, “Melt granulated sucralfate preparations and a process for their production” (Chugai Seiyaku Kabushiki Kaisha, priority 1994, dated 1998).

Columns and labels:
Assay type in all cases: physicochemical
[1] = dispersed particle size (size of particles as dispersed in water), laser diffraction particle size analyzer
Method: Each of the samples thus prepared was measured for the dispersed particle size (i.e., the size of particles as dispersed in water) by means of a laser diffraction particle size analyzer (Nikkiso Co., Ltd.); in addition, the samples were analyzed for average size (at 50% cumulative frequency) and the proportion of particles not larger than 50 μm. […]

[2] = specific surface area measurement, nitrogen gas as adsorbate; conditions: Table 2
Method: Each of the samples thus prepared was measured for the dispersed particle size by means of a laser diffraction particle size analyzer; in addition, a specific surface area measurement was conducted before and after the granulation by means of a specific surface area measuring instrument (Shimadzu Corp.) using nitrogen gas as adsorbate.

[3] = particle size of the comminuted powder (hammer mill); conditions: comminuted with a hammer mill at about 3,000-3,600 rpm
Method: A dry powder sucralfate (as specified in Pharmacopoeia of Japan, JP) was comminuted with a hammer mill at about 3,000-3,600 rpm.

[4] = Table 2, sucralfate:polyethylene glycol mixing proportions
[5] = Table 2, sucralfate:polyethylene glycol mixing proportions, melt granulated at 300 rpm to 65° C.

Substance	Dispersed particle size, Average ([1]; Table 1, average size at 50% cumulative frequency, dispersed in water)	Dispersed particle size, Percent 50 μm and less ([1]; Table 1, dispersed in water)	Dispersed particle size, Percent 50 μm and less [1, 4]	Dispersed particle size, Average [1, 5]	Specific surface area [2]	particle size of comminuted powder, in words [3]
sucralfate [Comminuted sucralfate powder]	4.4 μm	100.0%	100.0%	4.4 μm	5.1 m^2 /g	entirely composed of particles not larger than 50 μm
sucralfate [Sucralfate of JP]			86.2%	18.6 μm	1.6 m^2 /g	
